# What was measured:
# 3T3-L1 adipocytes = experiment: Triglyceride (Oil red O) accumulation during differentiation of 3T3-L1 adipocytes; format: cell-based, mouse; details: for triglyceride accumulation in adipocytes: 50-micromolar (lowest concentration), added during the 7-days differentiation process; for lipid deposition (triglyceride accumulation) in adipocytes: 200-micromolar (4x higher concentration), added during differentiation, steviol dissolved with DMSO
# Experimental: 3T3-L1 mouse preadipocytes were purchased from the American Type Culture Collection (ATCC). They are cultivated in DHG medium (Dulbecco's modified Eagle's medium+High Glucose 4.5 g/l, GibcoBRL) supplemented with 10% FCS (foetal calf serum, GibcoBRL) and incubated a 37 C+5% CO2 incubator in a humidified atmosphere. For pre-adipocyte differentiation, 3T3-L1 cells were seeded at 50% confluence 3 days before the beginning of the differentiation programme. Confluent cell monolayers (day 0) are switched for 48 h to media containing the adipogenic cocktail: “DHG-L1” medium (DHG that contains 1.5 g/l NaHCO3) supplemented with 10% FCS, 5 μg/ml insulin, 300 μM dibutyryl-cyclicAMP (dbcAMP) and 1 μM dexamethasone. The cells were then refeeded every other day with DHG-L1 containing 10% FCS and 5 μg/ml insulin. At the end, 80-90% of cells were differentiated. […]
# To characterize the state of (de)differentiation obtained in the presence of the molecules of interest, triglycerides present in the cells were stained with Oil red O (a dye of the neutral lipids). The absorbance of cell monolayers at 490 nm was measured in a spectrophotometer.
# [1] = tested on: mouse pancreatic islets, β-cell line INS-1; details: direct action on β-cells; cited from earlier work
# [2] = tested on: atherosclerotic plaques of DKO mice; experiment: Atherosclerosis: morphometric and immunohistochemical analysis of aortic root cross sections of DKO mice; format: in vivo, mouse; details: 12 weeks
# Experimental: Homozygous LDL-receptor-knockout mice (LDLR^(−/−)), heterozygous ob/+, and C57BL6 mice were purchased from Jackson Laboratory, Bar Harbor, Me. LDLR^(−/−) mice were backcrossed into a C57BL6 background to the 10th generation. To obtain DKO mice with combined leptin deficiency (ob/ob) and LDL-receptor deficiency, LDLR^(−/−) and ob/+ mice were crossed. All offspring were genotyped by polymerase chain reaction (PCR) techniques. All mice were housed at 22° C. on a fixed 12/12-hour light/dark cycle. Experimental procedures in animals were performed in accordance with protocols approved by the Institutional Animal Care and Research Advisory Committee. All mice were fed standard chow containing 4% fat (Pavan Service). Food intake was ≈5.7 g/d. Mice (about 50 g) were treated with stevioside (N=14; 10 mg/kg), steviol (N=9; 5 mg/kg) or placebo (N=17) for 12 weeks between 12 and 24 weeks of age. Stevioside (Molecular weight: 804) was dissolved in water (1 mg/ml) and 500 μl of the solution was administered orally. Steviol (Molecular weight: 318) was dissolved in water containing 6% NaHCO3 (1 mg/ml) and 250 μl of the solution was administered orally.
# The extent of atherosclerosis was determined by analysis of cross sections from the aortic root. Approximately ten 7-μm frozen sections per staining per animal were used for morphometric and immunohistochemical analysis. Total plaque areas were measured on hematoxylin and eosin stained sections. Lipids were stained with oil-red O, and macrophage areas were stained with an antibody against mouse Mac-3 antigen (Pharmingen), and oxidized LDL with the monoclonal antibody 4E6. Blinded analysis of positive immunostained sections was performed with the Quantimet600 image analyzer (Leica).
# [3] = tested on: everted gastrointestinal sacs of rats and Caco-2 cell layers; details: free steviol formed in the colon; cited from earlier work
# [4] = cited from earlier work
# [5] = steviol 5 mg/kg vs stevioside 10 mg/kg orally
# [6] = stevioside 10 mg/kg or steviol 5 mg/kg orally
compound,measurement,setting,value
"C=C1C[C@@]23CC[C@H]4[C@@](C)(CCC[C@@]4(C)C(=O)OC4OC(C(=O)O)C(O)C(O)C4O)[C@@H]2CC[C@]1(O)C3 (stereo partly drawn) [steviol glucuronide, steviol-19-O-β-D-glucuronide]",triglyceride accumulation in adipocytes,3T3-L1 adipocytes,inhibited significantly
"C=C1C[C@@]23CC[C@H]4[C@@](C)(CCC[C@@]4(C)C(=O)O)[C@@H]2CC[C@]1(O)C3 [steviol, Kaur-16-en-18-oic acid, 13-hydroxy-, (4α)-]",triglyceride accumulation in adipocytes,3T3-L1 adipocytes,did not significantly reduce
same,lipid deposition (triglyceride accumulation) in adipocytes,3T3-L1 adipocytes,did not have an effect
same,insulin secretion,[1],stimulation of insulin secretion
same,"SMC content of plaques, compared to stevioside",[2]; [5],increased somewhat more
same,"plaque lipids, compared to stevioside",[2]; [5],decreased somewhat more
same,lipid deposition in plaques,[2]; [6],reducing
same,macrophage deposition in plaques,[2]; [6],reducing
same,oxLDL deposition in plaques,[2]; [6],reducing
same,plaque volume,[2]; [6],lowered
same,smooth muscle cell (SMC)-to-macrophage ratio (proxy for plaque stability),[2]; [6],increased
same,absorption of free steviol,[3],easily absorbed
same,transformation by human microsomes relative to rat microsomes,[4]; human vs rat liver microsomes,about 4 times lower
same,transformation of steviol by human microsomes,[4]; in vitro incubation with human liver microsomes,very low
"Kaur-16-en-18-oic acid, 13-[(O-b-D-glucopyranosyl-(1→2)-O-[b-D-glucopyranosyl-(1→3)]-b-D-glucopyranosyl)oxy]-, b-D-glucopyranosyl ester, (4a)- [rebaudioside]",triglyceride accumulation in adipocytes,3T3-L1 adipocytes,did not significantly reduce
same,lipid deposition (triglyceride accumulation) in adipocytes,3T3-L1 adipocytes,inhibited

# Reference: patent publication US20100099640A1, “TISSUE DEGENERATION PROTECTION” (priority 2007, published 2010)
